This note sets out measurements from patent US7332608B2, “Anthranilamides and methods of their use” (SANOFI-AVENTIS Deutschland GmbH, priority 2001, dated 2008).

By IC50 is commonly meant the concentration at which inhibition is half-maximal.

The experiment concerns the target T1, Human Kv1.5 channels (Homo sapiens, UniProt P22460).
T1 construct: expressed in transfected cells; host or cells: Xenopus laevis oocytes injected with in vitro synthesized Kv1.5-encoding RNA
Kind of experiment: Kv1.5 currents in Xenopus oocytes, two-microelectrode voltage clamp. It is filed as cell-based. Conditions: human Kv1.5 expressed in Xenopus laevis oocytes; voltage jumps 500 ms to 0 mV and 40 mV; room temperature; Hill equation. The protocol:
Human Kv1.5 channels were expressed in Xenopus oocytes. For this purpose, firstly ooytes were isolated from Xenopus laevis and were defolliculated. Kv1.5-encoding RNA which had been synthesized in vitro was then injected into these oocytes. After 1-7 days of Kv1.5 protein expression, the Kv1.5 currents were measured on the oocytes by the two-microelectrode voltage clamp technique. The Kv1.5 channels were for this purpose usually activated with voltage jumps lasting 500 ms to 0 mV and 40 mV. A solution of the following composition flowed through the bath: NaCl 96 mM, KCl 2 mM, CaCl2 1.8 mM, MgCl2 1 mM, HEPES 5 mM (titrated to pH 7.4 with NaOH). These experiments were carried out at room temperature. The following were employed for data acquisition and analysis: geneclamp amplifier (Axon Instruments, Foster City, USA) and MacLab D/A converter and software (ADInstruments, Castle Hill, Australia). The compounds of the invention were tested by adding them in various concentrations to the bath solution. The effects of the compounds were calculated as percentage inhibition of the Kv1.5 control current which was obtained when no compound was added to the solution. The data were then extrapolated using the Hill equation in order to determine the inhibitory concentrations IC50 for the respective compounds.

T1 sequence (P22460 whole entry): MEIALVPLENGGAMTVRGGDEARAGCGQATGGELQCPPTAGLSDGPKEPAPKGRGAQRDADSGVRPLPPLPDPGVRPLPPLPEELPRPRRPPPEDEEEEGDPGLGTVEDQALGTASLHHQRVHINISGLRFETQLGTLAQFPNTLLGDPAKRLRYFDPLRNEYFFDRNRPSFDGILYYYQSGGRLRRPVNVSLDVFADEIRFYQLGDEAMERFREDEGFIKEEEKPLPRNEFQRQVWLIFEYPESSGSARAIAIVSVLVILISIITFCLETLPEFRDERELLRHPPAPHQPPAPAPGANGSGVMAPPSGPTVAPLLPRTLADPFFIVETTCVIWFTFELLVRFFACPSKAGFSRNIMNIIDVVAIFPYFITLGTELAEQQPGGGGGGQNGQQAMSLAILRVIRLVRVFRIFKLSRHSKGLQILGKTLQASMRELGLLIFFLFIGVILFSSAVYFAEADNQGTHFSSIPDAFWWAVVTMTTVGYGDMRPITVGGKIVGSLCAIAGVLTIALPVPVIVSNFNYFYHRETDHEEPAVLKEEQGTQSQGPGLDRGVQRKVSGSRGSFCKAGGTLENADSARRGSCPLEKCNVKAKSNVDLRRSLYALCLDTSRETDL

For the compound `CC[C@H](NC(=O)c1ccccc1NS(=O)(=O)c1ccc(OC(F)(F)F)cc1)c1ccccc1` [Example 67], the IC50 amounted to 5.8 µM. To `Cc1ccc(S(=O)(=O)Nc2ccccc2C(=O)N(Cc2ccn[nH]2)CC2CC2)cc1` [Example 85] belongs 5.2 µM. To `CCCCS(=O)(=O)Nc1cc(C)ccc1C(=O)NC1CCCCC1` [Example 20] belongs 7.7 µM; to `COc1cccc([C@H](C)NC(=O)c2cc(OC)ccc2NS(=O)(=O)c2ccc(C)cc2)c1` [Example 96], 1 µM. To `C[C@@H](c1ccccc1)N(C)C(=O)c1ccccc1NS(=O)(=O)c1ccccc1` [Example 98] belongs 2 µM; to `COc1ccc(S(=O)(=O)Nc2ccccc2C(=O)N(Cc2ccccc2)Cc2cccnc2)cc1` [Example 50], 0.7 µM.

The compound `COc1cccc(CN(CC2CC2)C(=O)c2ccccc2NS(=O)(=O)c2ccc(C)cc2)c1` [Example 82] came in with an IC50 of 3.2 µM. To `Cc1ccc(S(=O)(=O)Nc2ccc(Cl)cc2C(=O)N(Cc2ccccc2)Cc2cccnc2)cc1` [Example 45] belongs 2.5 µM; to `CCCCS(=O)(=O)Nc1ccccc1C(=O)N(Cc1ccccc1)Cc1cccnc1` [Example 71], 6.9 µM; to `COc1ccc(NS(=O)(=O)c2ccc(C)cc2)c(C(=O)N[C@@H](C)C2CCCCC2)c1` [Example 95], 0.7 µM. To `Cc1cccc(NS(=O)(=O)c2ccc(Cl)cc2)c1C(=O)NC1CCCCC1` [Example 22] belongs 4.8 µM; to `COc1ccc(NS(=O)(=O)c2ccc(C)cc2)c(C(=O)NC(c2ccccc2)C2CC2)c1` (stereo not drawn) [Example 93], 1.1 µM; to `Cc1ccc(S(=O)(=O)Nc2ccccc2C(=O)N(Cc2ccccc2)CC2CCCO2)cc1` (stereo not drawn) [Example 116], 1.1 µM. To `Cc1ccc(S(=O)(=O)Nc2ccc(C)cc2C(=O)NC(c2ccccn2)C2CC2)cc1` (stereo not drawn) [Example 126] belongs 0.6 µM; to `CC[C@@H](NC(=O)c1cc(OC)ccc1NS(=O)(=O)c1ccc(C)cc1)c1ccccc1` [Example 99], 0.9 µM; to `CCCCS(=O)(=O)Nc1ccc(C)cc1C(=O)NC(C)c1ccccc1` (stereo not drawn) [Example 55], 4.6 µM. As for `Cc1ccc(S(=O)(=O)Nc2ccccc2C(=O)N(Cc2ccccc2)Cc2nccn2C)cc1` [Example 30], the IC50 stood at 0.7 µM.

`CC[C@H](NC(=O)c1ccccc1NS(=O)(=O)c1ccc(C)cc1)c1ccccc1` [Example 60]: half-maximal inhibition (IC50) required 0.7 µM.
